Data taken from ChEMBL document CHEMBL1201862, “PubChem BioAssay data set” (2004).
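Results reflect a 48-hour exposure of cells in 96-well plates to compound at five concentrations. GI50: concentration for 50% inhibition of growth.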 Activity calls are given as the source filed them. Rule as the data show it: active = GI50 up to about 1.1 µM and inactive = higher.

What was measured:
Assay in all cases: DTP human tumour cell line panel, 48 h
[1] = tested on: 786-0
[2] = tested on: A498
[3] = tested on: A549
[4] = tested on: ACHN
[5] = tested on: BT-549
[6] = tested on: CAKI-1
[7] = tested on: CCRF-CEM
[8] = tested on: COLO 205
[9] = tested on: DU-145
[10] = tested on: EKVX
[11] = tested on: HCC 2998
[12] = tested on: HCT-116
[13] = tested on: HCT-15
[14] = tested on: HOP-62
[15] = tested on: HOP-92
[16] = tested on: KM12
[17] = tested on: LOX IMVI
[18] = tested on: M14
[19] = tested on: MCF7
[20] = tested on: MDA-MB-231
[21] = tested on: MDA-MB-435
[22] = tested on: MOLT-4
[23] = tested on: NCI-H226
[24] = tested on: NCI-H23
[25] = tested on: NCI-H460
[26] = tested on: NCI/ADR-RES
[27] = tested on: OVCAR-3
[28] = tested on: OVCAR-4
[29] = tested on: OVCAR-5
[30] = tested on: OVCAR-8
[31] = tested on: PC-3
[32] = tested on: RPMI-8226
[33] = tested on: RXF 393
[34] = tested on: SF-268
[35] = tested on: SF-295
[36] = tested on: SK-MEL-28
[37] = tested on: SK-MEL-2
[38] = tested on: SK-MEL-5
[39] = tested on: SK-OV-3
[40] = tested on: SNB-19
[41] = tested on: SNB-75
[42] = tested on: SW-620
[43] = tested on: T47D
[44] = tested on: TK-10
[45] = tested on: U-251
[46] = tested on: UACC-257
[47] = tested on: UACC-62
[48] = tested on: UO-31
[49] = tested on: HL-60
[50] = tested on: HT-29
[51] = tested on: IGROV-1
[52] = tested on: K562
[53] = tested on: MDA-N
[54] = tested on: Malme-3M
[55] = tested on: NCI-H522
[56] = tested on: SN12C
[57] = tested on: SR

CN(C)C(=O)C(F)(F)C(c1ccc(F)cc1)C1C(=O)N(C)C(=O)N(C)C1=O (stereo not given)
GI50 [1]: > 100 µM (inactive) | GI50 [2]: > 100 µM (inactive) | GI50 [3]: > 100 µM (inactive) | GI50 [4]: > 100 µM (inactive) | GI50 [5]: > 100 µM (inactive) | GI50 [6]: > 100 µM (inactive) | GI50 [7]: > 100 µM (inactive) | GI50 [8]: > 100 µM (inactive) | GI50 [9]: > 100 µM (inactive) | GI50 [10]: > 100 µM (inactive) | GI50 [11]: > 100 µM (inactive) | GI50 [12]: > 100 µM (inactive) | GI50 [13]: > 100 µM | GI50 [14]: > 100 µM (inactive) | GI50 [15]: > 100 µM (inactive) | GI50 [16]: > 100 µM (inactive) | GI50 [17]: > 100 µM (inactive) | GI50 [18]: > 100 µM (inactive) | GI50 [19]: > 100 µM (inactive) | GI50 [20]: > 100 µM (inactive) | GI50 [21]: > 100 µM (inactive) | GI50 [22]: > 100 µM (inactive) | GI50 [23]: > 100 µM (inactive) | GI50 [24]: > 100 µM (inactive) | GI50 [25]: > 100 µM (inactive) | GI50 [26]: > 100 µM (inactive) | GI50 [27]: > 100 µM (inactive) | GI50 [28]: > 100 µM (inactive) | GI50 [29]: > 100 µM (inactive) | GI50 [30]: > 100 µM (inactive) | GI50 [31]: > 100 µM (inactive) | GI50 [32]: > 100 µM (inactive) | GI50 [33]: > 100 µM (inactive) | GI50 [34]: > 100 µM (inactive) | GI50 [35]: > 100 µM (inactive) | GI50 [36]: > 100 µM (inactive) | GI50 [37]: > 100 µM (inactive) | GI50 [38]: > 100 µM (inactive) | GI50 [39]: > 100 µM (inactive) | GI50 [40]: > 100 µM (inactive) | GI50 [41]: > 100 µM (inactive) | GI50 [42]: > 100 µM (inactive) | GI50 [43]: > 100 µM (inactive) | GI50 [44]: > 100 µM (inactive) | GI50 [45]: > 100 µM (inactive) | GI50 [46]: > 100 µM (inactive) | GI50 [47]: > 100 µM (inactive) | GI50 [48]: > 100 µM (inactive)

NCC1CCCCC1.O=C(O)NCC1CCCCC1
GI50 [1]: 24.1 µM (inactive) | GI50 [2]: 15 µM (inactive) | GI50 [3]: 30.1 µM (inactive) | GI50 [4]: 23.9 µM (inactive) | GI50 [5]: 26.5 µM (inactive) | GI50 [6]: 28.2 µM (inactive) | GI50 [7]: 15.7 µM (inactive) | GI50 [9]: 21.1 µM (inactive) | GI50 [10]: 30.1 µM (inactive) | GI50 [12]: 27.6 µM (inactive) | GI50 [13]: 23.8 µM | GI50 [49]: 15.6 µM (inactive) | GI50 [14]: 17.5 µM (inactive) | GI50 [15]: 3.95 µM (inactive) | GI50 [50]: 19.3 µM (inactive) | GI50 [51]: 9.12 µM (inactive) | GI50 [52]: 6.28 µM (inactive) | GI50 [16]: 12.1 µM (inactive) | GI50 [17]: 15.3 µM (inactive) | GI50 [18]: 36.6 µM (inactive) | GI50 [20]: 25.8 µM (inactive) | GI50 [21]: 22.9 µM (inactive) | GI50 [53]: 15.9 µM (inactive) | GI50 [22]: 15.2 µM (inactive) | GI50 [54]: 2.29 µM (inactive) | GI50 [23]: 17.9 µM (inactive) | GI50 [24]: 23.3 µM (inactive) | GI50 [25]: 13.4 µM (inactive) | GI50 [55]: 10.7 µM (inactive) | GI50 [26]: 26 µM (inactive) | GI50 [27]: 4.89 µM (inactive) | GI50 [28]: 35.6 µM (inactive) | GI50 [29]: 31.9 µM (inactive) | GI50 [30]: 13.2 µM (inactive) | GI50 [31]: 17.7 µM (inactive) | GI50 [32]: 1.36 µM (inactive) | GI50 [33]: 19.1 µM (inactive) | GI50 [34]: 12.8 µM (inactive) | GI50 [35]: 19.1 µM (inactive) | GI50 [36]: 38 µM (inactive) | GI50 [37]: 14.1 µM (inactive) | GI50 [38]: 15.3 µM (inactive) | GI50 [56]: 12.5 µM (inactive) | GI50 [40]: 47.3 µM (inactive) | GI50 [41]: 13.7 µM (inactive) | GI50 [57]: 23.4 µM (inactive) | GI50 [42]: 17.9 µM (inactive) | GI50 [44]: 30 µM (inactive) | GI50 [45]: 7.45 µM (inactive) | GI50 [46]: 22.2 µM (inactive) | GI50 [47]: 18.7 µM (inactive) | GI50 [48]: 33.6 µM (inactive)
